Experimental data: publication PMC7897990, “TriTOX: A novel Trichomonas vaginalis assay platform for high-throughput screening of compound libraries” (International Journal for Parasitology: Drugs and Drug …, 2021)
Like-named read-outs stand apart in the source and are kept apart here. Non-standard residues stand in square brackets, D forms with d. Residues, ends and D or L forms follow the SMILES beside them. aIle = CC[C@@H](C)[C@H](N)C(=O)O

Experiments:
[1] = tested on: Trichomonas vaginalis G3 trophozoites; assay: microbe, parasite or virus in culture; settings: 48 h
[2] = tested on: nontumorigenic neonatal foreskin fibroblast (NFF) cell line
[3] = tested on: Trichomonas vaginalis G3 trophozoites
[4] = read-out: T.vaginalis_%inb_Rep1
[5] = read-out: T.vaginalis_%inb_Rep2
[6] = NFF fibroblast screen at 5 µg/mL, A = active, I = inactive
[7] = NFF fibroblasts, single concentration 5 µg/mL
[8] = HTS, parasite screen at 1 µg/mL, replicate 1, raw absorbance
[9] = HTS, parasite screen at 1 µg/mL, replicate 2, raw absorbance

COC(=O)/C(=C1/OC(=O)C(c2ccccc2)=C1O)c1ccccc1 [Vulpinic acid]
inhibition of growth at 1 µg/mL [1, 4]: 8.02%
inhibition of growth at 1 µg/mL [1, 5]: 11.4%
NFF_Activity [2, 6]: I (otherwise these were reported as inactive (I))

CO/N=C1\C[C@]2(C[C@@H]3C[C@@H](C/C=C(\C)C[C@@H](C)/C=C/C=C4\CO[C@@H]5[C@H](O)C(C)=C[C@@H](C(=O)O3)[C@]45O)O2)O[C@H](/C(C)=C/C(C)C)[C@H]1C [Moxidectin]
inhibition of growth at 1 µg/mL [1, 4]: 9.23%
inhibition of growth at 1 µg/mL [1, 5]: 6.09%
NFF_Activity [2, 7]: I (otherwise these were reported as inactive (I))

C[C@H]1CCCC(=O)CCCCCc2cc(O)cc(O)c2C(=O)O1 [Zearalanone]
inhibition of growth at 1 µg/mL [1, 4]: 10.1%
inhibition of growth at 1 µg/mL [1, 5]: 14.6%
NFF_Activity [2, 6]: I (otherwise these were reported as inactive (I))

C[C@@H]1C[C@H]2CC[C@H](O2)[C@H](C)C(=O)O[C@@H](C)C[C@@H]2CC[C@@H](O2)[C@@H](C)C(=O)O[C@H](C)C[C@H]2CC[C@H](O2)[C@H](C)C(=O)O[C@@H](C)C[C@@H]2CC[C@@H](O2)[C@@H](C)C(=O)O1 [Nonactin]
inhibition of growth at 1 µg/mL [1, 4]: 11.6%
inhibition of growth at 1 µg/mL [1, 5]: 12.1%
NFF_Activity [2]: I (key: active (A) compounds having >25% inhibitory activity; otherwise these were reported as inactive (I))

CC/C=C\[C@H](O)[C@H](O)C1=C(C)C(=O)[C@]2(O1)C(=O)N[C@@](OC)(C(=O)c1ccccc1)[C@@H]2O [Pseurotin A]
inhibition of growth at 1 µg/mL [1, 4]: 11.5%
inhibition of growth at 1 µg/mL [1, 5]: 11.5%
NFF_Activity [2, 7]: I (otherwise these were reported as inactive (I))

C=C(NC(=O)C(=C)NC(=O)c1csc(C2=N[C@@H]3c4csc(n4)[C@H]4NC(=O)c5csc(n5)[C@H]([C@](C)(O)[C@@H](C)O)NC(=O)[C@H]5CSC(=N5)/C(=C/C)NC(=O)[C@H]([C@@H](C)O)NC(=O)c5csc(n5)[C@]3(CC2)NC(=O)[C@H](C)NC(=O)C(=C)NC(=O)[C@H](C)NC(=O)[C@H]([C@@H](C)CC)N[C@@H]2C=Cc3c([C@H](C)O)cc(nc3[C@H]2O)C(=O)O[C@@H]4C)n1)C(N)=O [Thiostrepton]
inhibition of growth at 1 µg/mL [1, 4]: 9.91%
inhibition of growth at 1 µg/mL [1, 5]: 14.3%
NFF_Activity [2, 6]: I (otherwise these were reported as inactive (I))

CN(C)c1ncnc2c1ncn2[C@@H]1O[C@H](CO)[C@@H](N)[C@H]1O [Puromycin aminonucleoside]
inhibition of growth at 1 µg/mL [1, 4]: 15.7%
inhibition of growth at 1 µg/mL [1, 5]: 13%
NFF_Activity [2, 7]: I (otherwise these were reported as inactive (I))

CC12C[C@@]34C=CC(=O)[C@@](C)(CCC(=O)Nc5c(O)ccc(C(=O)O)c5O)C3[C@H](CC1C4)O2 (stereo partly shown) [Platensimycin]
inhibition of growth at 1 µg/mL [1, 4]: 11.3%
inhibition of growth at 1 µg/mL [1, 5]: 10%
NFF_Activity [2, 7]: I (otherwise these were reported as inactive (I))

CCCCCC1=C/C(=C/c2[nH]c(-c3ccc[nH]3)cc2OC)N=C1C [Prodigiosin]
inhibition of growth at 1 µg/mL [1, 4]: 9.63%
inhibition of growth at 1 µg/mL [1, 5]: 1.73%
NFF_Activity [2, 7]: I (otherwise these were reported as inactive (I))

Cc1cc(O)c(C=O)c2c1C(=O)Oc1c(C)c(O)c3c(c1O2)C(O)OC3=O (stereo not shown) [Norstictic acid]
inhibition of growth at 1 µg/mL [1, 4]: 13.7%
inhibition of growth at 1 µg/mL [1, 5]: 12.1%
NFF_Activity [2, 7]: I (otherwise these were reported as inactive (I))

COC[C@H]1OC(=O)c2coc3c2[C@@]1(C)C1=C(C3=O)[C@@H]2CCC(=O)[C@@]2(C)C[C@H]1OC(C)=O [Wortmannin]
inhibition of growth at 1 µg/mL [1, 4]: 7.97%
inhibition of growth at 1 µg/mL [1, 5]: 13.5%
NFF_Activity [2, 6]: I (otherwise these were reported as inactive (I))

C[C@H]1CCCC(=O)CCC/C=C/c2cc(O)cc(O)c2C(=O)O1 [Zearalenone]
inhibition of growth at 1 µg/mL [1, 4]: 7.39%
inhibition of growth at 1 µg/mL [1, 5]: 12%
NFF_Activity [2, 6]: I (otherwise these were reported as inactive (I))

Cn1c2ccccc2c(=O)c2c(O)cc3c(c21)C=CC(C)(C)O3 [Noracronycine]
inhibition of growth at 1 µg/mL [1, 4]: 8.76%
inhibition of growth at 1 µg/mL [1, 5]: 12.6%
NFF_Activity [2, 7]: I (otherwise these were reported as inactive (I))

CC[C@H]1OC(=O)[C@H](C)[C@@H](O[C@H]2C[C@@](C)(OC)[C@@H](O)[C@H](C)O2)[C@H](C)[C@@H](O[C@@H]2O[C@H](C)C[C@H](N(C)C)[C@H]2O)[C@](C)(O)C[C@@H](C)[C@@H]2N[C@@H](COCCOC)O[C@H]([C@H]2C)[C@]1(C)O [Dirithromycin]
inhibition of growth at 1 µg/mL [1, 4]: 8.51%
inhibition of growth at 1 µg/mL [1, 5]: 2.24%
T.vaginalis_Absorbance_Rep1 [3, 8]: 0.867
T.vaginalis_Absorbance_Rep2 [3, 9]: 0.651

O=C(O)c1cccc(C(=O)O)n1 [Dipicolinic acid]
inhibition of growth at 1 µg/mL [1, 4]: 13.9%
inhibition of growth at 1 µg/mL [1, 5]: 2.6%
T.vaginalis_Absorbance_Rep1 [3]: 0.967
T.vaginalis_Absorbance_Rep2 [3]: 0.656

Cc1cc(O)c2c(c1)C(=O)c1cc(O)cc(O)c1C2=O [Emodin]
inhibition of growth at 1 µg/mL [1, 4]: 17.8%
inhibition of growth at 1 µg/mL [1, 5]: 12.6%
T.vaginalis_Absorbance_Rep1 [3, 8]: 1.052
T.vaginalis_Absorbance_Rep2 [3, 9]: 0.831

CC[C@@H](C)[C@@H]1NC(=O)[C@@H](CC(C)C)NC(=O)[C@H](CC(C)C)NC(=O)[C@H](Cc2c[nH]c3ccccc23)NC(=O)CNC(=O)[C@H](CC(N)=O)NC1=O [Desotamide] (cyclo(GWL[dL][aIle]N))
inhibition of growth at 1 µg/mL [1, 4]: 15%
inhibition of growth at 1 µg/mL [1, 5]: 4.99%
T.vaginalis_Absorbance_Rep1 [3, 8]: 0.987
T.vaginalis_Absorbance_Rep2 [3, 9]: 0.689

C[C@H]1c2cccc(O)c2C(=O)C2=C(O)[C@]3(O)C(=O)C(C(N)=O)=C(O)[C@@H](N(C)C)[C@@H]3[C@@H](O)[C@@H]21 [Doxycycline]
inhibition of growth at 1 µg/mL [1, 4]: 9.15%
inhibition of growth at 1 µg/mL [1, 5]: 1.95%
T.vaginalis_Absorbance_Rep1 [3, 8]: 0.879
T.vaginalis_Absorbance_Rep2 [3, 9]: 0.647

COc1cccc2c1C(=O)c1c(O)c3c(c(O)c1C2=O)C[C@@](O)(C(=O)CO)C[C@@H]3O[C@H]1C[C@H](N)[C@H](O)[C@H](C)O1 [Doxorubicin]
inhibition of growth at 1 µg/mL [1, 4]: 13.5%
inhibition of growth at 1 µg/mL [1, 5]: 3.11%
T.vaginalis_Absorbance_Rep1 [3, 8]: 0.959
T.vaginalis_Absorbance_Rep2 [3, 9]: 0.663

CC(=O)O[C@H]1C[C@@]2(C)[C@@H](C[C@@H](O)[C@H]3[C@@]4(C)CC[C@@H](O)[C@@H](C)[C@@H]4CC[C@@]32C)/C1=C(\CCC=C(C)C)C(=O)O [Fusidate sodium]
inhibition of growth at 1 µg/mL [1, 4]: 4.26%
inhibition of growth at 1 µg/mL [1, 5]: 1.6%
T.vaginalis_Absorbance_Rep1 [3, 8]: 0.786
T.vaginalis_Absorbance_Rep2 [3, 9]: 0.66

CC(=O)O[C@H]1C[C@@]2(C)[C@@H](CC[C@H]3[C@@]4(C)C=CC(=O)[C@@H](C)[C@@H]4[C@H](OC(C)=O)C(=O)[C@@]32C)/C1=C(\CCC=C(C)C)C(=O)O [Helvolic acid]
inhibition of growth at 1 µg/mL [1, 4]: 5.19%
inhibition of growth at 1 µg/mL [1, 5]: 10.6%
T.vaginalis_Absorbance_Rep1 [3, 8]: 0.864
T.vaginalis_Absorbance_Rep2 [3, 9]: 0.811

C[C@@H](O)[C@H]1C(=O)N2C(C(=O)O)=C(S[C@@H]3CN[C@H](CNS(N)(=O)=O)C3)[C@H](C)[C@H]12 [Doripenem]
inhibition of growth at 1 µg/mL [1, 4]: 15.6%
inhibition of growth at 1 µg/mL [1, 5]: 15.6%
T.vaginalis_Absorbance_Rep1 [3, 8]: 0.999

COC1=CC(=O)C[C@@H](C)[C@]12Oc1c(Cl)c(OC)cc(OC)c1C2=O [Griseofulvin]
inhibition of growth at 1 µg/mL [1, 4]: 12.4%
inhibition of growth at 1 µg/mL [1, 5]: 12.1%
T.vaginalis_Absorbance_Rep1 [3, 8]: 0.947
T.vaginalis_Absorbance_Rep2 [3, 9]: 0.823

CS(=O)(=O)c1ccc([C@@H](O)[C@@H](CF)NC(=O)C(Cl)Cl)cc1 [Florfenicol]
inhibition of growth at 1 µg/mL [1, 4]: 7.7%
inhibition of growth at 1 µg/mL [1, 5]: 9.33%
T.vaginalis_Absorbance_Rep1 [3, 8]: 0.852
T.vaginalis_Absorbance_Rep2 [3, 9]: 0.749
